System: ScGT1 cells
Conditions: for cells remaining viable after treatment: mouse

Substance | cell viability / cytotoxicity | cells remaining viable after treatment
fulvic acids [FA] | remain viable | 94%
humic acids [HA] | remain viable | 96%
